Data reported in patent US7247651B2, “2,7-substituted indoles” (Roche Palo Alto LLC, priority 2002, dated 2007).
pKi: −log10 of the molar value.

Target: T1, recombinant human 5-HT6 receptor (Homo sapiens, UniProt P50406)
T1 construct: expressed in transfected cells; cell membranes used
Test: in vitro radioligand binding, competition for [3H]LSD binding in membranes of HEK293 cells
Conditions: [3H]LSD (5 nM), HEK293 cell membranes, pH 7.4, 37° C., 60 min
Description: This example illustrates in vitro radioligand binding studies of Compound of Formula I.
The binding activity of compounds of this invention in vitro was determined as follows. Duplicate determinations of ligand affinity are made by competing for binding of [^3H]LSD in cell membranes derived from HEK293 cells stably expressing recombinant human 5-HT6 receptor.
All determinations were made in assay buffer containing 50 mM Tris-HCl, 10 mM MgSO4, 0.5 mM EDTA, 1 mM ascorbic acid, pH 7.4 at 37° C., in a 250 microliter reaction volume. Assay tubes containing [3H] LSD (5 nM), competing ligand, and membrane were incubated in a shaking water bath for 60 min. at 37° C., filtered onto Packard GF-B plates (pre-soaked with 0.3% PEI) using a Packard 96 well cell harvester and washed 3 times in ice cold 50 mM Tris-HCl. Bound [^3H] LSD was determined as radioactive counts per minute using Packard TopCount.
Displacement of [3H]LSD from the binding sites was quantified by fitting concentration-binding data to a 4-parameter logistic equation:
[formula] where Hill is the Hill slope, [ligand] is the concentration of competing radioligand and IC50 is the concentration of radioligand producing half-maximal specific binding of radioligand. The specific binding window is the difference between the Bmax and the basal parameters.
Using the procedures of Example 6, compounds of Formula I were tested and found to be selective 5-HT6 antagonists.

T1 sequence (P50406 whole entry): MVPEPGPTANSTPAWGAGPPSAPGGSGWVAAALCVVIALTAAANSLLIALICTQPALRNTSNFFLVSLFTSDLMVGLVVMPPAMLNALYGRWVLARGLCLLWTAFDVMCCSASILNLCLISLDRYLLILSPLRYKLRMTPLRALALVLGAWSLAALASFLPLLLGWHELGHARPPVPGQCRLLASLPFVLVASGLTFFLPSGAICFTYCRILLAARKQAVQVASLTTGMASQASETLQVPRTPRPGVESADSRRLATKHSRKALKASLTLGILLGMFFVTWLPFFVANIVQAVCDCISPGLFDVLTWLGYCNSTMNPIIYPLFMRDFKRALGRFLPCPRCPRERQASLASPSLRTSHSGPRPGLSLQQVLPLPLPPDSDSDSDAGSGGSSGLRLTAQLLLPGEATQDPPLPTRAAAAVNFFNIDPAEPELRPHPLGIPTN

Row | pKi | SMILES
1 | 9.10 | CN1CCN(c2cccc3cc(S(=O)(=O)c4ccccc4)[nH]c23)CC1 [Compound 2, 2-Benzenesulfonyl-7-(4-methyl-piperazin-1-yl)-1H-indole]
2 | 9.50 | CN1CCN(c2cccc3cc(S(=O)(=O)c4ccccc4C(F)(F)F)[nH]c23)CC1 [Compound 8, 7-(4-Methyl-piperazin-1-yl)-2-(2-trifluoromethyl-benzenesulfonyl)-1H-indole]
3 | 9.30 | O=S(=O)(c1cc2cccc(N3CCNCC3)c2[nH]1)c1ccccc1F [Compound 5, 2-(2-Fluoro-benzenesulfonyl)-7-piperazin-1-yl-1H-indole]
4 | 9.00 | CN1CCC(c2cccc3cc(S(=O)(=O)c4ccccc4)[nH]c23)CC1 [Compound 7, 2-Benzenesulfonyl-7-(1-methyl-piperidin-4-yl)-1H-indole]
5 | 9.60 | CN1CCN(c2cccc3cc(S(=O)(=O)c4cccc(Br)c4)[nH]c23)CC1 [Compound 10, 2-(3-Bromo-benzenesulfonyl)-7-(4-methyl-piperazin-1-yl)-1H-indole]
6 | 9.70 | O=S(=O)(c1cc2cccc(N3CCNCC3)c2[nH]1)c1cccc(Cl)c1Cl [Compound 3, 2-(2,3-Dichloro-benzenesulfonyl)-7-piperazin-1-yl-1H-indole]
7 | 9.30 | O=S(=O)(c1cccc(Br)c1)c1cc2cccc(N3CCNCC3)c2[nH]1 [Compound 11, 2-(3-Bromo-benzenesulfonyl)-7-piperazin-1-yl-1H-indole]
8 | 9.10 | CN1CCN(c2cccc3cc(S(=O)(=O)c4cccc(Cl)c4Cl)[nH]c23)CC1 [Compound 4, 2-(2,3-Dichloro-benzenesulfonyl)-7-(4-methyl-piperazin-1-yl)-1H-indole]
9 | 9.50 | O=S(=O)(c1cc2cccc(N3CCNCC3)c2[nH]1)c1ccccc1C(F)(F)F [Compound 9, 7-Piperazin-1-yl-2-(2-trifluoromethyl-benzenesulfonyl)1H-indole]
10 | 9.20 | O=S(=O)(c1ccccc1)c1cc2cccc(C3CCNCC3)c2[nH]1 [Compound 6, 2-Benzenesulfonyl-7-piperidin-4-yl-1H-indole]

Row | SMILES | pKi
11 | O=S(=O)(c1ccccc1)c1cc2cccc(N3CCNCC3)c2[nH]1 [Compound 1, 2-Benzenesulfonyl-7-piperazin-1-yl-1H-indole] | 9.30
